Measured values from paper PMC11357484, “Investigating Changes in Pharmacokinetics of Steroidal Alkaloids from a Hydroethanolic Fritillariae thunbergii Bulbus Extract in 2,4-Dinitrobenzene Sulfonic Acid-Induced Colitis Rats” (Pharmaceuticals, 2024).

Columns and labels:
[1] = cited from earlier work
[2] = Pharmacokinetics of steroidal alkaloids after single oral FTB dose in normal and DNBS-induced colitis rats; assay type: in vivo, Sprague–Dawley rats; settings: for AUC_%Extrap_obs / AUClast / AUMClast / Cmax / MRT last / Tmax / half-life: oral FTB 1 g/kg single dose, plasma, mean ± SD, n = 5; for Cmax / MRT last / Tmax / half-life: male, Sprague-Dawley, rat, po, 1 g/kg; for half-life under colitis compared with normal conditions / systemic exposure under colitis condition compared with normal state: oral FTB 1 g/kg, DNBS vs normal rats
Protocol: Ten-week-old male Sprague–Dawley rats were obtained from Samtaco (Osan, Republic of Korea), quarantined, and acclimatized for one week before the experiments. All animal experiments were approved by the Animal Care and Use Committee of Chungnam National University (202304A-CNU-067). The rats were fasted for 14–16 h the day before administration of DNBS (Sigma-Aldrich). After the rats were anesthetized with isoflurane, the colitis group received a single dose of 30 mg/250 μL in 50% ethanol through a medical grade polyurethane catheter, injected rectally into the descending colon 8 cm from the anal sphincter. DNBS was administered slowly over 1 min, and the rats were kept supine in the Trendelenburg position for 3 min after injection to prevent leakage. The normal group received only 50% ethanol, following the same procedure as described above. The pharmacokinetic study was performed four days after DNBS administration, and both the normal and DNBS groups were orally administered a single dose of 1 g/kg FTB. Blood samples were obtained from the tail vein at 0, 0.5, 0.75, 1, 2, 4, 6, 8, 10, 12, 24, and 30 h, and the rats were sacrificed after the last blood collection. The plasma samples obtained were centrifuged at 16,000× g for 15 min and stored at −80 °C until analysis.
Plasma concentrations were measured using UPLC-MS/MS (Agilent Technologies Inc.) in the same manner as described above. 100 μL of plasma was vortexed with 20 μL ammonia water and 800 μL ethyl acetate for 15 min and centrifuged at 16,000× g for 15 min. After evaporating 800 μL of the supernatant under nitrogen at 40 °C, 50 μL of 50% methanol was added. The mixture was then vortexed and centrifuged, and 5 μL of the final extract was used for analysis.
For the plasma concentration analysis, the limit of detection and limit of quantification (LOQ) were defined based on the concentration of the analyte, which generated signal-to-noise (S/N) ratios of 3 and 10, respectively, following the “Guideline on Bioanalytical Method Validation” for the Ministry of Food and Drug Safety in Korea (MFDS 2023). Among the active ingredients of FTB, peimine, peimisine, peiminine, and sipeimine were detected in concentrations above the LOQ —the multiple reaction monitoring conditions of each of them are summarized in Supplementary Table S2. The calibration curves were linear over the concentration range of 0 to 2000 ng/mL, with a correlation coefficient of R^2 > 0.99. Precision and accuracy were evaluated by calculating the intra- and inter-day recoveries of quality control samples at three concentrations: 10, 50, and 100 ng/mL. The intra- and inter-day recoveries were within the range of 84.6 to 115.6%, and the coefficient of variation was less than 10%. Detailed validation results for the analysis method of peimine, peimisine, peiminine, and sipeimine are summarized in Supplementary Table S3.
The pharmacokinetic parameters were calculated based on a non-compartmental model using Monolix 2023R1 (Lixoft SAS, Simulations Plus Inc., Lancaster, CA, USA). The dosage of each component was calculated based on the content of the component within the FTB, and applied in the pharmacokinetics analysis. From the data analyzed, the Cmax of FTB and the time to Cmax (Tmax) were determined. Elimination half-life was obtained by linear regression of log-tranformed concentration data in the late phase. The AUC was estimated using the linear log-trapezoidal and linear up-log-down rules for the time of final concentration in each group.

RAW 264.7 cells = test: Cell viability (EZ-Cytox) in RAW 264.7 cells; assay type: cell-based, mouse; settings: 24 h incubation
Protocol: (§1) The RAW 264.7, a mouse macrophage cell line (American Type Culture Collection, Manassas, VA, USA), was grown in DMEM medium supplemented with 10% fetal bovine serum and 1% penicillin–streptomycin at 37 °C with 5% CO2.
To determine cell viability against the four steroidal alkaloids, peimine, peimisine, peiminine, and sipeimine, RAW 264.7 cells were seeded at a density of 5 × 10^4 cells/well in 96-well plates and incubated overnight. Cells were then incubated with various concentrations of the four compounds (0, 0.78, 1.56, 3.13, 6.25, 12.5, 25, 50, and 100 μg/mL) for 24 h, respectively. Subsequently, 10 μL of EZ-Cytox (DoGenBio Co., Seoul, Republic of Korea) was added and incubated for 1 h. Absorbance was measured at 450 nm using an enzyme-linked immunosorbent assay reader (Bio-Rad Laboratories, Hercules, CA, USA). Cell viability was calculated by comparing the values measured with those of untreated cells.

[3] = test system: LPS-stimulated RAW 264.7 cells; test: Pro-inflammatory cytokine mRNA expression (qPCR) in LPS-stimulated RAW 264.7 cells; assay type: cell-based, mouse; settings: 25 μg/mL; 24 h pretreatment then LPS 4 h; vs LPS alone
Protocol: as §1
To evaluate the anti-inflammatory effects of the active ingredients in FTB, the cells were seeded in 12-well plates at 3 × 10^5 cells/mL and treated with 25 μg/mL of the four steroidal alkaloids, peimine, peimisine, peiminine and sipeimine, respectively, a concentration determined to be non-toxic according to the cell viability assay. LPS (Sigma-Aldrich, St. Louis, MO, USA) from Escherichia coli O111:B4 was used as a control at a concentration of 10 μg/mL. Cells were pretreated with the compounds for 24 h, followed by treatment with LPS for 4 h. After cells were harvested, total RNA was extracted using a total RNA extraction kit (Samjung Bioscience, Daejeon, Republic of Korea), and the extracted RNA was reverse transcribed into cDNA. The synthesized cDNA was subjected to quantitative polymerase chain reaction to measure the mRNA expression levels of cytokines using the following forward and reverse primers: IL-1β, forward, 5′-[…]-3′; reverse, 5′-[…]-3′; IL-6, forward, 5′-[…]-3′; reverse, 5′-[…]-3′; TNF-α, forward, 5′-[…]-3′; reverse, 5′-[…]-3′; GAPDH, forward, 5′-[…]-3′; reverse, 5′-[…]-3′.

SMILES	partition coefficient (logP) [1]	AUC_%Extrap_obs ([2]; DNBS-treated (colitis) rats)	AUClast ([2]; DNBS-treated (colitis) rats)	AUMClast ([2]; DNBS-treated (colitis) rats)	Cmax ([2]; DNBS-treated (colitis) rats)	MRT last ([2]; DNBS-treated (colitis) rats)	Tmax ([2]; DNBS-treated (colitis) rats)	half-life ([2]; DNBS-treated (colitis) rats)	Cmax ([2]; normal rats)	MRT last ([2]; normal rats)	Tmax ([2]; normal rats)	half-life ([2]; normal rats)	AUC_%Extrap_obs ([2]; normal rats)	AUClast ([2]; normal rats)	AUMClast ([2]; normal rats)	half-life under colitis compared with normal conditions [2]	systemic exposure under colitis condition compared with normal state [2]	concentrations at which no toxicity was shown (cell viability) (RAW 264.7 cells)	pKa [1]	other results
C[C@H]1CC[C@@H]2N(C1)C[C@H]1[C@@H]3C[C@H]4[C@@H](C[C@H](O)[C@H]5C[C@@H](O)CC[C@@]54C)[C@@H]3CC[C@@H]1[C@]2(C)O [peimine]	4.1	6.6 ± 6.6%	1076.9 ± 444.1 h∗ng/mL	2819.7 ± 1408.9 h∗h∗ng/mL	351 ± 150 ng/mL	2.7 ± 0.6 h	1 ± 0.7 h	1.9 ± 0.7 h	356 ± 253 ng/mL	3.7 ± 0.8 h	0.7 ± 0.2 h	4 ± 2.5 h	6.7 ± 5.5%	1311.8 ± 762.6 h∗ng/mL	4511.4 ± 2253.8 h∗h∗ng/mL	shorter half-life	no observable difference	0 to 25000 ng/mL	–	–
C[C@H]1CC[C@@H]2N(C1)C[C@H]1[C@@H]3C[C@H]4[C@@H](CC(=O)[C@H]5C[C@@H](O)CC[C@@]54C)[C@@H]3CC[C@@H]1[C@]2(C)O [peiminine]	3.9	3.3 ± 2.9%	888.8 ± 286.0 h∗ng/mL	3149.7 ± 1242.0 h∗h∗ng/mL	209 ± 51.1 ng/mL	3.6 ± 0.6 h	1.3 ± 0.8 h	1.8 ± 0.9 h	228 ± 110 ng/mL	4.7 ± 1.1 h	1 ± 0.2 h	4.5 ± 2 h	14.5 ± 15.7%	1172.4 ± 392.3 h∗ng/mL	5302.0 ± 1844.3 h∗h∗ng/mL	shorter half-life	no observable difference	0 to 25000 ng/mL	approximately 14	IL-6 mRNA expression lowered [3]: approximately 5 fold
CC1=C2C[C@H]3[C@@H](CC(=O)C4C[C@@H](O)CC[C@@]43C)[C@@H]2CC[C@]12OC1C[C@H](C)CN[C@H]1[C@H]2C (some centres unmarked) [peimisine]	2.7	8.9 ± 11.6%	16,895.4 ± 5782.1 h∗ng/mL	126,755.7 ± 54,141.2 h∗h∗ng/mL	2330 ± 363 ng/mL	7.3 ± 1.3 h	1.5 ± 0.8 h	7.7 ± 4.9 h	656 ± 672 ng/mL	5 ± 2 h	0.9 ± 0.2 h	3.9 ± 1.7 h	5.3 ± 4.0%	3959.3 ± 4738.6 h∗ng/mL	23,522.8 ± 33,482.7 h∗h∗ng/mL	–	approximately five times higher	0 to 25000 ng/mL	approximately 14	IL-1β mRNA expression lowered [3]: about 6 fold; TNF-α mRNA expression lowered [3]: ~3 fold
C[C@H]1CC[C@@H]2N(C1)C[C@H]1[C@@H]3C[C@H]4[C@@H](CC(=O)[C@H]5C[C@@H](O)CC[C@@]54C)[C@@H]3CC[C@H]1[C@]2(C)O [sipeimine]	4.4	11.0 ± 8.3%	764.0 ± 285.5 h∗ng/mL	3588.3 ± 1486.0 h∗h∗ng/mL	162 ± 97 ng/mL	4.7 ± 0.6 h	2.4 ± 1.2 h	3.2 ± 1.6 h	64.7 ± 13.4 ng/mL	5.4 ± 1.7 h	1.3 ± 0.5 h	6.9 ± 5.6 h	10.4 ± 8.6%	463.5 ± 232.8 h∗ng/mL	2675.8 ± 2026.3 h∗h∗ng/mL	shorter half-life	no observable difference	0 to 25000 ng/mL	approximately 14	–
